Test results reported in patent US10231954B2, “Neurodegenerative therapies” (LYTIX BIOPHARMA AS, priority 2014, dated 2019).

Legend:
Format in all cases: biochemical
p38g MAPK = biological target: T1, p38g MAPK (Homo sapiens, UniProt P53778); assay: Kinase profiling p38g MAPK; settings: 100 micromolar inhibitor concentration, 100 is no change; for remaining activity at 100 µM: read-out: residual kinase activity, p38g MAPK
T1 sequence (P53778 1-367): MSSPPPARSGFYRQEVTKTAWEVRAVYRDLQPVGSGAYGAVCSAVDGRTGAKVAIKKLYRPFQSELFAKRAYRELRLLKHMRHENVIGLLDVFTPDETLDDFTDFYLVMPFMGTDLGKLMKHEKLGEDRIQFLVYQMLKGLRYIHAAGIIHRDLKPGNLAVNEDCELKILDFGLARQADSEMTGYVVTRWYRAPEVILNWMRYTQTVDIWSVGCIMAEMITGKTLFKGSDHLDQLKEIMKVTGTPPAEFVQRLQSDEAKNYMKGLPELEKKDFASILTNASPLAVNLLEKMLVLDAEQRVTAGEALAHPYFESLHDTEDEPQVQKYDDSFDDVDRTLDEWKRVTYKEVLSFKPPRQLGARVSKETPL
Source text: (§1) Any value less that 25 is considered to be highly significant inhibition.

PKBb = PKBb (Homo sapiens, UniProt P31751); assay: Kinase profiling PKBb; settings: for residual kinase activity, PKBb: 100 micromolar inhibitor concentration, 100 is no change; for remaining activity at 100 µM: read-out: residual kinase activity, PKBb
Source text: as §1

SGK1 = biological target: T2, SGK1 (Homo sapiens, UniProt O00141); assay: Kinase profiling SGK1; settings: 100 micromolar inhibitor concentration, 100 is no change; for remaining activity at 100 µM: read-out: residual kinase activity, SGK1
T2 sequence (O00141 1-431): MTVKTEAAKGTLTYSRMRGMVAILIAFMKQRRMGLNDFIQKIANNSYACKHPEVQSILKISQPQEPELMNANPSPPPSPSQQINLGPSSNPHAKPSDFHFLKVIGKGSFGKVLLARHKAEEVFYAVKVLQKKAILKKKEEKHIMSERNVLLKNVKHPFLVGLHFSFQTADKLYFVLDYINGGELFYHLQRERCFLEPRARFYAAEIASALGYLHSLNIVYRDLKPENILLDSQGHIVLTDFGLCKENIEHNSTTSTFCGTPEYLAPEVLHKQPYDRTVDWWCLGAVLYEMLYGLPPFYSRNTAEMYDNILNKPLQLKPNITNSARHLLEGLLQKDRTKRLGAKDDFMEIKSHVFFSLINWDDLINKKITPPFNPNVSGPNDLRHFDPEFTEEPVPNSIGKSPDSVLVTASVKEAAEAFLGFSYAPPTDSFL
Source text: as §1

STK33 = STK33 (Homo sapiens, UniProt Q9BYT3); assay: Kinase profiling STK33; settings: 100 micromolar inhibitor concentration, 100 is no change; for remaining activity at 100 µM: read-out: residual kinase activity, STK33
Source text: as §1

DYRK1A = DYRK1A (Homo sapiens, UniProt Q13627); assay: DYRK 1A assay (kinase profiling); settings: 100 micromolar inhibitor concentration, 100 is no change; for remaining activity at 100 µM: read-out: residual kinase activity, DYRK1A
Experimental: Assays are stopped by addition of 5 μl of 0.5 M (3%) orthophosphoric acid and then harvested onto P81 Unifilter plates with a wash buffer of 50 mM orthophosphoric acid.
as §1

MST2 = biological target: T3, MST2 (Homo sapiens, UniProt Q13188); assay: Kinase profiling MST2; settings: 100 micromolar inhibitor concentration, 100 is no change; for remaining activity at 100 µM: read-out: residual kinase activity, MST2
T3 sequence (Q13188 1-491): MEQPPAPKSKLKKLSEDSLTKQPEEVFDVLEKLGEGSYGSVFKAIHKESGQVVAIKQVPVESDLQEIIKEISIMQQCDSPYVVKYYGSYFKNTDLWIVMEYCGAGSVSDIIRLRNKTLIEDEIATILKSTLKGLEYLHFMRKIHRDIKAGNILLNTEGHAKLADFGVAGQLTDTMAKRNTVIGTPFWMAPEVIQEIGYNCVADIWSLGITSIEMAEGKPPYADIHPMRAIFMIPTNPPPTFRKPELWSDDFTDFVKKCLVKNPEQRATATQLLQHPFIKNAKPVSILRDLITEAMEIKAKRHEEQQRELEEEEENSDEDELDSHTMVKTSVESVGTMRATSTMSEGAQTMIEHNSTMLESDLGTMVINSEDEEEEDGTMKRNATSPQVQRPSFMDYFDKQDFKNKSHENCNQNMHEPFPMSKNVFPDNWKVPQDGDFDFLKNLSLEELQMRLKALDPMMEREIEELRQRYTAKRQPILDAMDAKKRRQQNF
Source text: as §1

IRAK4 = biological target: T4, IRAK4 (Homo sapiens, UniProt Q9NWZ3); assay: Kinase profiling IRAK4; settings: 100 micromolar inhibitor concentration, 100 is no change; for remaining activity at 100 µM: read-out: residual kinase activity, IRAK4
T4 sequence (Q9NWZ3 1-460): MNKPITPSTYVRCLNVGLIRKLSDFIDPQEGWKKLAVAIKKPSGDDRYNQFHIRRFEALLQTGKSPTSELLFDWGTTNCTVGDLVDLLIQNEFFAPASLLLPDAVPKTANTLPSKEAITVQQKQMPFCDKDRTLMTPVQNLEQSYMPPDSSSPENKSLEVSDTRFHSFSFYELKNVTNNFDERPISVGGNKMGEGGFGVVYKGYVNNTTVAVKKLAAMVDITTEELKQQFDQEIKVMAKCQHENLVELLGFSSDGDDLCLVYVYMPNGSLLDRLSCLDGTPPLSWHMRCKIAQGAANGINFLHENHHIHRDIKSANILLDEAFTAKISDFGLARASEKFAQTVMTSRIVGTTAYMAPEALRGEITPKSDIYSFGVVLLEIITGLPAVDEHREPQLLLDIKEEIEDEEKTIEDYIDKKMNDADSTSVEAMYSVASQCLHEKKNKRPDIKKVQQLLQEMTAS
Source text: as §1

TTK = biological target: T5, TTK (Homo sapiens, UniProt P33981); assay: Kinase profiling TTK; settings: 100 micromolar inhibitor concentration, 100 is no change; for remaining activity at 100 µM: read-out: residual kinase activity, TTK
T5 sequence (P33981 1-857): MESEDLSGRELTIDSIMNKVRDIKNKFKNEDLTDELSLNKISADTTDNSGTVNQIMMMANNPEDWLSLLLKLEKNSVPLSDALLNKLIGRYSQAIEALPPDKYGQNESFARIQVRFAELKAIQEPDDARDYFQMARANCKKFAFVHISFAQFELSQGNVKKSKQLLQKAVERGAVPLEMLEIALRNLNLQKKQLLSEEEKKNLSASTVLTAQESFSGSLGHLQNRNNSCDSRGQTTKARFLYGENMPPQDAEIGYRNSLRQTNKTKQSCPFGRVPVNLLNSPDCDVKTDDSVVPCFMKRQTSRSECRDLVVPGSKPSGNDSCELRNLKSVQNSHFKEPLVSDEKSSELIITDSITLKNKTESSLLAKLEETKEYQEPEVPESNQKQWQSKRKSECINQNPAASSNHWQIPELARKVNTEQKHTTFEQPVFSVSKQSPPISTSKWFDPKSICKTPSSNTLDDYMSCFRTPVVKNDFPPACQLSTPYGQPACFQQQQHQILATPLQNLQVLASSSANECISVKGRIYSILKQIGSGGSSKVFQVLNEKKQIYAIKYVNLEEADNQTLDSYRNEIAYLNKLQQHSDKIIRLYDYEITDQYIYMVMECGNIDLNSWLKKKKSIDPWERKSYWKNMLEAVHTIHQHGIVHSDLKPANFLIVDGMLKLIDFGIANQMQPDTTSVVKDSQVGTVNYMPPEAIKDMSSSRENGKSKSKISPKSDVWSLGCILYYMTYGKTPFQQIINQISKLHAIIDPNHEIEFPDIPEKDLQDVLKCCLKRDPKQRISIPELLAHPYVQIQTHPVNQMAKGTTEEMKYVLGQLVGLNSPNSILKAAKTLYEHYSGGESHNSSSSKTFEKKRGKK
Source text: as §1

STK33, sequence (Q9BYT3 whole entry, species assumed): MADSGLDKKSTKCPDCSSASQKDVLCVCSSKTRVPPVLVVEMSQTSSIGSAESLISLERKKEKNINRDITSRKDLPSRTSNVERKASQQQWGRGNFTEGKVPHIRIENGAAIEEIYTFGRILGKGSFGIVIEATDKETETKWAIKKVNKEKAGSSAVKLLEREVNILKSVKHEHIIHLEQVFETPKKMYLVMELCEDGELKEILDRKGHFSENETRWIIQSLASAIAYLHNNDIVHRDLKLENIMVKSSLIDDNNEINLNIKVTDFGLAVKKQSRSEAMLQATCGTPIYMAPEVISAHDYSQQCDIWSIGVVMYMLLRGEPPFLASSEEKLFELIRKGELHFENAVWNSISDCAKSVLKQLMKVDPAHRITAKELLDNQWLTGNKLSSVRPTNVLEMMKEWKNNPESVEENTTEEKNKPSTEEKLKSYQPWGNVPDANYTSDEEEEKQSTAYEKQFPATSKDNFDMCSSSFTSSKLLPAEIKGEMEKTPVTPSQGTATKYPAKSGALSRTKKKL
PKBb, sequence (P31751 whole entry): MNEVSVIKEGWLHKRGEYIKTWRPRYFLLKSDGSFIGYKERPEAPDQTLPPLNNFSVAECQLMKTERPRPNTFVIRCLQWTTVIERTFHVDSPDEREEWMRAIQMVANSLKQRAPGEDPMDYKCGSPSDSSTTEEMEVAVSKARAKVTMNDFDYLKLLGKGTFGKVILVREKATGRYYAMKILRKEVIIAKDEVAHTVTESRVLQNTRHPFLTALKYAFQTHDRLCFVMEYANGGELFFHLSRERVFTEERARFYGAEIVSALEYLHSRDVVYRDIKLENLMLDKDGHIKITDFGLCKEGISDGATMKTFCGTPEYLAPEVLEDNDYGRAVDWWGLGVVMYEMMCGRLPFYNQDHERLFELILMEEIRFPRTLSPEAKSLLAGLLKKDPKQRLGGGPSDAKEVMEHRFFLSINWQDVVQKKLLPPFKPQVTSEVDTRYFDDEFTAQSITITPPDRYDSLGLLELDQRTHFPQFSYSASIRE

| Compound | residual kinase activity, p38g MAPK (p38g MAPK) | residual kinase activity, PKBb (PKBb) | residual kinase activity, SGK1 (SGK1) | residual kinase activity, STK33 (STK33) | residual kinase activity, DYRK1A (DYRK1A) | residual kinase activity, MST2 (MST2) | residual kinase activity, IRAK4 (IRAK4) | residual kinase activity, TTK (TTK) | remaining activity at 100 µM (p38g MAPK) | remaining activity at 100 µM (PKBb) | remaining activity at 100 µM (SGK1) | remaining activity at 100 µM (STK33) | remaining activity at 100 µM (DYRK1A) | remaining activity at 100 µM (MST2) | remaining activity at 100 µM (IRAK4) | remaining activity at 100 µM (TTK) |
| --- | --- | --- | --- | --- | --- | --- | --- | --- | --- | --- | --- | --- | --- | --- | --- | --- |
| O=C(Nc1nc2cc(O)ccc2s1)c1ccccn1 [Compound 03-13] | 94 | 60 | 74 | 71 | 25 | 60 | 55 | 53 |  |  |  |  |  |  |  |  |
| COc1ccc2sc(NC(C)=O)nc2c1 [Compound 03-21] |  |  |  |  |  |  |  |  | 56% | 92% | 82% | 81% | 2% | 91% | 52% | 67% |
| CC(=O)Nc1nc2ccccc2s1 [Compound 03-32] | 109 | 112 | 92 | 104 | 43 | 88 | 65 | 71 |  |  |  |  |  |  |  |  |
| O=C(Nc1nc2cc(O)ccc2s1)c1cccnc1 [Compound 03-33] | 85 | 93 | 86 | 70 | 29 | 73 | 42 | 45 |  |  |  |  |  |  |  |  |
| O=C(Nc1nc2ccc(O)cc2s1)c1ccccc1 [Compound 03-60] | 58 | 86 | 41 | 38 | 2 | 40 | 22 | 19 |  |  |  |  |  |  |  |  |
| CC(=O)Nc1nc2cc(C(F)(F)F)ccc2s1 [Compound 03-73] |  |  |  |  |  |  |  |  | 93% | 104% | 77% | 86% | 22% | 80% | 60% | 86% |
| CC(=O)Nc1nc2cc(C)ccc2s1 [Compound 03-76] | 92 | 91 | 65 | 80 | 23 | 75 | 51 | 49 |  |  |  |  |  |  |  |  |
| CC(=O)Nc1nc2cc(F)ccc2s1 [Compound 03-77] |  |  |  |  |  |  |  |  | 77% | 93% | 66% | 70% | 7% | 80% | 43% | 64% |
| O=C(Nc1nc2ccc(O)cc2s1)c1ccncc1 [Compound 08-42] | 87 | 52 | 60 | 67 | 15 | 55 | 42 | 32 |  |  |  |  |  |  |  |  |
| O=C(Nc1nc2ccc(O)cc2s1)c1cccnc1 [Compound 08-44] | 77 | 45 | 51 | 57 | 8 | 57 | 32 | 22 |  |  |  |  |  |  |  |  |
